Measured values: paper PMC12123458, “Unraveling Small Molecule-Mediated Sirtuin 3 Activation at a Distinct Binding Site for Cardioprotective Therapies” (ACS Central Science, 2025)
Like-named read-outs stand apart in the source and are kept apart here.

Tests used:
[1] = tested on: Dox-induced cardiotoxicity model; assay: Mouse model of doxorubicin-induced cardiomyopathy; format: in vivo
Method: For the establishment of the experimental model, male C57BL/6J mice aged 8 weeks, with an average weight of 23 g, were utilized. The mice were administered varying dosages of SKLB-11A (10 and 20 mg/kg/day) or a corresponding volume of sterile saline via oral gavage over a period of 7 days. […] The sample size for each group consisted of eight specimens. Echocardiographic assessments were conducted at three distinct time points: baseline (day 0), post-treatment (day 7), and at the conclusion of the study (day 21). The experimental timeline was terminated on day 21.
Noninvasive transthoracic echocardiography was performed using a Vevo 3100 System with a 30-MHz transducer to assess cardiac function in mice. The procedure was conducted by an experienced technician who was blinded to the study groups. Mice were anesthetized with 1.5–2% isoflurane and underwent skin preparation. Two-dimensional guided M-mode echocardiography in the short axis view was used to measure left ventricular fractional shortening (FS) and left ventricular ejection fraction (EF).
H&E staining was used to evaluate pathological changes in key organs. Fixed tissues were dehydrated, embedded in paraffin, and sectioned into 4 μm slices. The sections were stained with hematoxylin for 10–15 min, washed with tap water for 2 min, differentiated for 30 s using hydrochloric acid and ethanol, and then washed with warm water for 5 min. After staining with eosin for 2 min, the sections were dehydrated and mounted with resin. All procedures followed the standard operating procedure (SOP) for pathological examination.

SIRT5 = target: T1, SIRT5 (Homo sapiens, UniProt Q9NXA8); assay: Coupled enzymatic assay, succinylated CPS1-K537 substrate; format: biochemical; conditions: 100 μM
T1 sequence (Q9NXA8 37-310): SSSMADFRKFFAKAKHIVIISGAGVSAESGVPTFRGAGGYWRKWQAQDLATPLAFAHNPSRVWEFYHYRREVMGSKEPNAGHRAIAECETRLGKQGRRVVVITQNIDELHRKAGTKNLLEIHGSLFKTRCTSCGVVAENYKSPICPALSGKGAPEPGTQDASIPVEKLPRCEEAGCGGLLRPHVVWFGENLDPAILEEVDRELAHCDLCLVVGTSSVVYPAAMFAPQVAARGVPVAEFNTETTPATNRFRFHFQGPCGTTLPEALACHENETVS
Source text: Additionally, we used surface plasmon resonance (SPR) to measure the binding of SKLB-11A to immobilized SIRT3. […] We next evaluated the selectivity of SKLB-11A for different SIRT family members. […] We next examined the functional specificity of SKLB-11A using coupled enzymatic assays with isoform-specific, physiologically relevant substrates: acetylated p53-K381 for SIRT1, acetylated α-tubulin-K25 for SIRT2, acetylated MnSOD-K122 for SIRT3, and succinylated CPS1-K537 for SIRT5 (Supplementary Table S3). […] Using Schrödinger molecular docking simulations, we assessed the binding interactions of SKLB-11A with SIRT isoforms.

[2] = Pharmacokinetics in SD rats; format: in vivo, Sprague–Dawley (SD) rats; conditions: for MRT inf: read-out: MRT0–∞; for half-life: read-out: T1/2z (converted)
Method: Given the potential of SKLB-11A for treating myocardial injury, we further evaluated its pharmacokinetic profile in Sprague–Dawley (SD) rats (Supplementary Table S5). The pharmacokinetics were assessed following both intravenous injection (1 mg/kg) and intragastric administration (10 mg/kg) of SKLB-11A.

SIRT2 = target: T2, SIRT2 (Rattus norvegicus, UniProt Q5RJQ4); assay: CETSA of SIRT2 in H9c2 cells; format: cell-based
T2 construct: endogenous in cells; host or cells: H9c2
T2 sequence (Q5RJQ4 1-350): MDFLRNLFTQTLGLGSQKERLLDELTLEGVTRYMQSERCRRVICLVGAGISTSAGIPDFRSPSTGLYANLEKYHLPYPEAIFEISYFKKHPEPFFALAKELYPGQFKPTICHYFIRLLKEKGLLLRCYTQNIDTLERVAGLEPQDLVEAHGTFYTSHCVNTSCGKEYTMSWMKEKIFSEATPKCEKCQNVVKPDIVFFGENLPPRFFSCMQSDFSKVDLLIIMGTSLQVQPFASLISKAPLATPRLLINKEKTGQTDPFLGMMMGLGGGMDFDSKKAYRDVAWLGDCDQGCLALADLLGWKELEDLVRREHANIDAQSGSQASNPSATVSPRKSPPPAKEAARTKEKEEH

[3] = Sprague-Dawley, rat, in vivo, iv, i.v. 1 mg/kg
[4] = Sprague-Dawley, rat, in vivo, po, p.o. 10 mg/kg

In the case of `COC(=O)c1c(N)n(Cc2ccc(F)cc2)c2nc3ccccc3nc12` [SKLB-11A, Methyl 2-amino-1-(4-fluorobenzyl)-1H-pyrrolo[2,3-b]quinoxaline-3-carboxylate], the “left ventricular ejection fraction (EF) and fractional shortening (FS)” value ([1]; 10 or 20 mg/kg, ig, pretreatment, Dox mice, dose-dependent) is reported as “significantly restored”, the “body weight (Dox-induced weight loss)” value ([1]; Dox mice) is reported as “partially reversed Dox-induced weight loss” and the “mitochondrial respiration (basal and maximal) in heart tissues” value ([1]; Dox mice) is reported as “restored mitochondrial respiration”. For the same compound, the “serum markers of myocardial injury LDH, CK-MB, BNP” value ([1]; Dox mice) was “reduced serum markers of myocardial injury”, the “myocardial structure, histology” value ([1]; Dox mice, H&E) was “preserved myocardial structure” and the “toxicity at effective doses, organ histology (heart, liver, spleen, lungs, kidneys)” value ([1]; mice, H&E) was “no apparent toxicity”. For the same compound, the “effect on basal SIRT5 desuccinylation activity” value (SIRT5) was “no statistically significant effects”, the AUC(0-inf) [2, 3] was 185 ± 20 ng·h/mL and the AUC(0-t) [2, 3] was 185 ± 19.9 ng·h/mL. The Cmax [2, 3] was 255 ± 3.42 ng/mL, the Tmax [2, 3] was 4.8 min and the clearance ([2]; Sprague-Dawley, rat, in vivo, iv, i.v. 1 mg/kg, read-out: CLZ (converted)) was 90.7 mL/min/kg. It also gave an MRT inf [2, 3] of 43.2 ± 3.6 min, a half-life [2, 3] of 36 ± 3.6 min and a Vd ([2]; Sprague-Dawley, rat, in vivo, iv, i.v. 1 mg/kg, read-out: VZ) of 4.66 ± 0.2 L/kg. It also gave an AUC(0-inf) [2, 4] of 128 ± 29.2 ng·h/mL, an AUC(0-t) [2, 4] of 123 ± 23.6 ng·h/mL and a Cmax [2, 4] of 67.9 ± 13 ng/mL. For the same compound, the Tmax [2, 4] was 15 min, the MRT inf [2, 4] was 266 ± 107 min and the half-life [2, 4] was 326 ± 156 min. For the same compound, the VZ ([2]; p.o. 10 mg/kg) was 39.99 ± 12.09 L/kg and the “thermal stability of SIRT2 (CETSA)” value (SIRT2) was “little effect on the thermal stability”.
